Reference: US20230083973A1, “SUBSTITUTED CYCLOPROPYL-2,2'-BIP[…], ANALOGUES THEREOF, AND METHODS USING SAME” (priority 2019, published 2023)

Each compound was assayed on HBsAg (assay: HBsAg assay: inhibition of HBsAg in HepG2.2.15 cells (chemiluminescence immunoassay of supernatant)). Details: Hepatitis B virus, HepG2.2.15, 144 h, read-out: sAg EC50, HepG2.2.15 cells; HBsAg in supernatant at day 6 after exposure to compound; 0.5% DMSO.
Assay type: cell-based, hepatitis B virus
How it was run: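 HepG2.2.15 cells treated with serially diluted compounds (0.5% DMSO), medium and compound refreshed after 2–3 days, supernatant harvested at day 6. Secreted HBsAg measured by chemiluminescence immunoassay; EC50 from dose-response curves, with parallel CellTiter-Glo viability at 5,000 cells/well.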

Compared with Fc1cc([C@@H]2C[C@H]2c2cnc(-c3ncccn3)nc2)cc(F)c1F (relative stereo) [Example 160, trans-5-(2-(3,4,5-Trifluorophenyl)cyclopropyl)-2,2′-bipyrimidine], Fc1cc([C@@H]2C[C@H]2c2cnc(-c3ncccn3)nc2)cc(-n2cccn2)c1F (single isomer, unassigned) [Example 253, trans-5-(2-(3,4-difluoro-5-(1H-pyrazol-1-yl)phenyl)cyclopropyl)-2,2′-bipyrimidine] is 9.3-fold lower in EC50: 270 nM for the first, 29 nM for the second. The second is the more potent here.

Compared with Fc1ccc(C2CC2c2ccnc(-c3ncccn3)n2)cc1F (single isomer, unassigned) [Example 5, trans-4-(2-(3,4-Difluorophenyl)cyclopropyl)-2,2′-bipyrimidine], CO[C@@H]1CCN(c2cc(C3CC3c3cnc(-c4ncccn4)nc3)ccc2F)C1 (single isomer, unassigned) [Example 94] is 19-fold lower in EC50: 5000 nM for the first, 270 nM for the second. The second is the more potent here.

First: CCc1cc(F)c(OC)cc1C1CC1c1cnc(-c2ncccn2)nc1 (single isomer, unassigned) [Example 35, trans-5-(2-(2-Ethyl-4-fluoro-5-methoxyphenyl)cyclopropyl)-2,2′-bipyrimidine]
Second: COCc1cnn(-c2cc([C@@H]3C[C@H]3c3cnc(-c4ncccn4)nc3)cc(F)c2F)c1 (relative stereo) [Example 236, trans-5-(2-(3,4-Difluoro-5-(4-(methoxymethyl)-1H-pyrazol-1-yl)phenyl)cyclopropyl)-2,2′-bipyrimidine]
The EC50 of the first is 7.1-fold higher: 550 nM for the first, 78 nM for the second.

Compared with Fc1cc([C@@H]2C[C@H]2c2cnc(-c3ncccn3)nc2)cc(F)c1OCCCN1CCOCC1 (relative stereo) [Example 241, trans-4-(3-(4-(2-([2,2′-Bipyrimidin]-5-yl)cyclopropyl)-2,6-difluorophenoxy)propyl)morpholine], CO[C@H]1CN(c2cc(C3CC3c3cnc(-c4ncccn4)nc3)cc(F)c2F)C[C@H]1OC (relative stereo) [Example 235, trans-5-(2-(3-((3R,4S)-3,4-Dimethoxypyrrolidin-1-yl)-4,5-difluorophenyl)cyclopropyl)-2,2′-bipyrimidine] is 21-fold lower in EC50: 830 nM for the first, 39 nM for the second. The second is the more potent here.

Same assay, conditions: read-out: sAg EC50; HepG2.2.15 cells; HBsAg in supernatant at day 6 after exposure to compound; 0.5% DMSO

First: COCCOc1cc(F)c(Cl)cc1C1CC1c1cnc(-c2ncccn2)nc1 (single isomer, unassigned) [Example 156, trans-5-(2-(5-Chloro-4-fluoro-2-(2-methoxyethoxy)phenyl)cyclopropyl)-2,2′-bipyrimidine]
Second: COCCCOc1cc(C2CC2c2cnc(-c3ncccn3)nc2)cc(F)c1F (single isomer, unassigned) [Example 131, trans-5-(2-(3,4-Difluoro-5-(3-methoxypropoxy)phenyl)cyclopropyl)-2,2′-bipyrimidine]
The EC50 of the first is 13-fold higher: 190 nM for the first, 15 nM for the second. The second is the more potent here.

Compared with CNC(=O)c1cc(C2CC2c2cnc(-c3ncccn3)nc2)ccc1Cl (single isomer, unassigned) [Example 201, trans-5-(2-([2,2′-Bipyrimidin]-5-yl)cyclopropyl)-2-chloro-N-methylbenzamide], COc1cc(C2CC2c2cnc(-c3ncccn3)nc2)cc(F)c1Cl (single isomer, unassigned) [Example 46, trans-5-(2-(4-Chloro-3-fluoro-5-methoxyphenyl)cyclopropyl)-2,2′-bipyrimidine] is 260-fold lower in EC50: 9000 nM for the first, 35 nM for the second.

First: COc1cc(C2CC2c2cnc(-c3ncccn3)nc2)c(Cl)cc1Cl (single isomer, unassigned) [Example 88, trans-5-(2-(2,4-Dichloro-5-methoxyphenyl)cyclopropyl)-2,2′-bipyrimidine]
Second: COc1cc(C2CC2c2cnc(-c3ncccn3)nc2OC)ccc1F (single isomer, unassigned) [Example 81, trans-5-(2-(4-Fluoro-3-methoxyphenyl)cyclopropyl)-4-methoxy-2,2′-bipyrimidine]
The EC50 of the first is 2.7-fold lower: 84 nM for the first, 230 nM for the second. The first is the more potent here.

Going from CN1CC[C@H](Nc2cc(C3CC3c3cnc(-c4ncccn4)nc3)cc(F)c2F)C1 (single isomer, unassigned) [Example 229] to CO[C@@H]1CCN(c2cc(C3CC3c3cnc(-c4ncccn4)nc3)ccc2F)C1 (single isomer, unassigned) [Example 95], the EC50 falls from 3000 nM to 170 nM (18-fold). The second is the more potent here.
